Data reported in patent US20160030415A1, “TREATMENT AND PROPHYLAXIS OF KIDNEY DISEASES” (priority 2013, published 2016).

System: Streptozotocin (STZ) induced diabetic rats
Assay: Study 2: HCQ and its combination with Losartan in comparison with anti-diabetic control (Glimepiride) in renal damage
Assay type: in vivo, Wistar rats
Conditions: for Serum Creatinine after 8th week / Serum Creatinine after 8th week (% Control) / Total Serum Protein Levels after 8th week / Total Serum Protein Levels after 8th week (% Control): Glimepiride 8 mg/kg alone (antidiabetic control) or with Losartan 11 mg/kg and/or Hydroxychloroquine 45 mg/kg, oral once daily; for Total Protein in Kidney Homogenate (% Control) / Total Protein in Kidney Homogenate Mean / TBARS (% Control) / TBARS Mean: after 8th week, Glimepiride 8 mg/kg alone or with Losartan 11 mg/kg and/or Hydroxychloroquine 45 mg/kg; for TBARS (% Control) / TBARS Mean: kidney homogenate
Experimental: The Efficacy of the drugs was tested in two different models, one involving comparison with diabetic control (i.e. Diabetic Rats not treated with any medication) and the other involving comparison with the anti-diabetic control group (i.e. Diabetic rats administered Glimepiride) in two separate studies. 30 Wistar rats of either sex weighing 150-250 g were divided randomly into 5 groups consisting of 6 animals each. Diabetes was induced in rats by single administration of Streptozotocin (STZ)(55 mg/kg/i.p) dissolved in 0.1 M-citrate buffer, pH 4.5. Group 1 (normal control) consisted of normal rats that neither received streptozotocin nor any test drug; Group 2 served as Anti-Diabetic control wherein diabetic rats were treated with antidiabetic drug Glimepiride. Group 3 was diabetic rats treated with Losartan (11 mg/kg); Group 4 was diabetic rats treated with Hydroxychloroquine (45 mg/kg) and Group 5 was diabetic rats treated with combination of Hydroxychloroquine (45 mg/kg) and Losartan (11 mg/kg). The study drugs were dissolved/suspended in distilled water and administered orally once a day for eight weeks. The diabetes mellitus induced nephropathy was assessed by estimating the level of serum creatinine and total serum protein content after completion of eighth week of study. TBARS and Total Protein were measured as markers of renal oxidative stress in Kidney Homogenate after completion of eighth week of study.

| SMILES | Serum Creatinine after 8th week | Serum Creatinine after 8th week (% Control) | Total Serum Protein Levels after 8th week | Total Serum Protein Levels after 8th week (% Control) | Total Protein in Kidney Homogenate (% Control) | Total Protein in Kidney Homogenate Mean | TBARS (% Control) | TBARS Mean |
| --- | --- | --- | --- | --- | --- | --- | --- | --- |
| CCN(CCO)CCCC(C)Nc1ccnc2cc(Cl)ccc12 (stereo not shown) [Hydroxychloroquine, 2-[{4-[(7-chloroquinolin-4-yl)amino]pentyl}(ethyl)amino]ethanol] | 2.80 mg/dL | (88.33) % Control | 5.39 g/dL | (112.24) % Control | (107.68) % Control | 1003.83 µg/mL | (57.32) % Control | 0.47 nM/mg |
| CCCCc1nc(Cl)c(CO)n1Cc1ccc(-c2ccccc2-c2nn[nH]n2)cc1 [Losartan] | 3.00 mg/dL | (94.64) % Control | 5.45 g/dL | (113.21) % Control | (98.15) % Control | 909.50 µg/mL | (76.83) % Control | 0.63 nM/mg |
